Test results as given in patent US6410558B1, “Fungicides for the control of take-all disease of plants” (Monsanto Technology LLC, priority 1991, dated 2002).

What was measured:
Ggt = test: In vivo Assay: control of Ggt on wheat grown in pots of Ggt-infested soil, root disease rating; set-up: species or system Gaeumannomyces graminis var. tritici; details: Gaeumannomyces graminis, 672 h; 0.5 mg active ingredient per pot; 'Bergen' or 'Anza' wheat in Ggt-infested soil; after four weeks; vs untreated control; read-out: In vivo, percent disease control
In short: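 Wheat ('Bergen' or 'Anza') seeds in soil infested with Ggt-colonised oats (4% v/v) treated at 0.5 mg active ingredient per pot in acetone/water with Tween 20; five pots per treatment. After four weeks, seminal roots rated 0–5; trimmed mean of three replicates converted to percent disease control versus untreated.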

[1] = system: Gaeumannomyces graminis var. tritici (Ggt); test: In vitro Assay: mycelial growth of Ggt on minimal media agar plates containing test compound; type: cell-based; details: Gaeumannomyces graminis, dark, 19-20° C., 4 to 5 days, diameter of mycelial growth; for inhibition at 0.1 ppm: 0.1 ppm in minimal media agar, read-out: In vitro (ppm) 0.1, Percent Inhibition; for inhibition at 1 ppm: 1 ppm in minimal media agar, read-out: In vitro (ppm) 1, Percent Inhibition; for inhibition at 10 ppm: 10 ppm in minimal media agar, read-out: In vitro (ppm) 10, Percent Inhibition
In short: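 Compounds added from acetone stock into minimal (Czapek Dox) agar; plates inoculated with three 4-mm Ggt plugs, incubated in dark at 19-20° C for 4 to 5 days. Colony diameter measured; Percent Inhibition = [1-((treated mm −4)/(control mm −4))]×100.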

SMILES	pest or weed control at 0.5 mg/pot (Ggt) [%]	melting point [°C]	inhibition at 0.1 ppm [1] [%]	inhibition at 1 ppm [1] [%]	inhibition at 10 ppm [1] [%]
CC(CCl)NC(=O)c1c(Cl)cccc1[Si](C)(C)C (stereo not drawn) [Example 171, 2-Chloro-N-(2-chloro-1-methylethyl)-6-(trimethylsilyl)benzamide]	87	150 to 151	48	88	97
CC1(c2cccc(F)c2C(=O)NCCCl)CCC1 [Example 199, N-(2-Chloroethyl)-2-fluoro-6-(1-methylcyclobutyl)benzamide]	–	108 to 110	–	–	–
CCNC(=O)c1c([Si](C)(C)C)sc2c1CCCC2 [Example 270, N-Ethyl-2-(trimethylsilyl)-4,5,6,7-tetrahydrobenzo[B]thiophene-3-carboxamide]	87	–	96	100	100
CCNC(=O)c1c([Si](C)(C)C)sc(C)c1C [Example 271, 4,5-Dimethyl-N-ethyl-2-(trimethylsilyl)-3-thiophenecarboxamide]	97	–	95	100	100
CCN(SC)C(=O)c1sccc1[Si](C)(C)C [Example 272, N-Ethyl-N-(methylthio)-3-(trimethylsilyl)-2-thiophenecarboxamide]	0	–	14	23	100
